Drawing on patent US7935819B2, “Cyclic urea derivatives, preparation thereof and pharmaceutical use thereof as kinase inhibitors” (Aventis Pharma S.A., priority 2006, dated 2011), this text covers IC50 and GI50 for 10 compounds.

One test deals with T1, IGF1R in MCF-7 cells (Homo sapiens, UniProt P08069).
T1 construct: endogenous in cells; host or cells: MCF-7 cells
Nature of the test: Autophosphorylation of IGF-1R in MCF7 cells after stimulation with IGF-1 (Test B), ELISA. The note with it: compound added one hour before IGF1 stimulation (10 minutes). Format: cell-based. On the procedure:
B) Measurement of the Autophosphorylation of IGF-1r in MCF7 Cells after Stimulation with IGF-1
Cell Culturing and Execution of the Test:
The autophosphorylation of IGF1R in the IGF1-induced cells is evaluated by means of an ELISA technique (Enzyme Linked ImmunoSorbent Assay). The MCF-7 are seeded at 60 000 cells per well in 6-well plates and incubated at 37° C., 5% CO2 in medium containing 10% serum. After one night in 10% serum, the cells are deprived of serum for 24 hours. The compounds are added to the medium one hour before stimulation with IGF1. After 10 minutes of stimulation with IGF1, the cells are lysed with a buffer (Hepes 50 mM pH 7.6, Triton X100 1%, orthovanadate 2 mM, protease inhibitor cocktail). The cell lysates are incubated on a 96-well plate precoated with an anti-IGF1R antibody, followed by incubation with an anti-phosphotyrosine antibody coupled to the enzyme peroxidase. The level of peroxidase activity (measured by OD with a luminescent substrate) reflects the phosphorylation status of the receptor.
(§1) (i) The tests are performed in duplicate and the mean of the two tests is calculated.
(§2) (ii) The value of the signal of the maximum response is calculated from the positive control: cells stimulated with IGF1 without compound.
(§3) (iii) Value of the signal of the minimum response is calculated from the negative control: cells not stimulated with IGF1 without compound.
(§4) (iv) By using these values as maximum (100%) and minimum (0%), respectively, the data were normalized so as to give a percentage of the maximum response.
(§5) (v) A curve of dose response is plotted and the IC50 (the concentration of which the compound induces a 50% decrease in the signal) of the compound is calculated by non-linear regression analysis.

Test [1] has as its target T2, IGF-1R (human cytoplasmic domain fused with GST) (Homo sapiens, UniProt P08069).
T2 construct: The human cytoplasmic domain of IGF-1R was cloned by fusion with glutathione S-transferase (GST); made in house; host or cells: SF21 insect cells (baculovirus, pFastBac-GST)
Nature of the test: Kinase IGF-1R test (Test A): inhibition of autophosphorylation of the enzyme, HTRF. To be noted: 120 μM ATP. Format: biochemical. On the procedure:
A) Experimental Protocol for the Kinase IGF-1R Test:
The inhibitory activity of the compounds on IGF1R is determined by measuring the inhibition of autophosphorylation of the enzyme using a time-resolved fluorescence test (HTRF). The human cytoplasmic domain of IGF-1R was cloned by fusion with glutathione S-transferase (GST) in the baculovirus expression vector pFastBac-GST. The protein is expressed in the SF21 cells and purified to about 80% homogeneity. For the enzymatic test, the test compound at 10 mM dissolved in DMSO is diluted in 1/3 steps in a 50 mM Hepes, pH 7.5, 5 mM MnCl2, 50 mM NaCl, 3% Glycerol, 0.025% Tween 20 buffer. To measure the inhibition, the successive dilutions of the compound are preincubated for 30 minutes and 90 minutes in the presence of 5 nM of enzyme, the final DMSO concentration not exceeding 1%. The enzymatic reaction is initiated to have a final ATP concentration of 120 μM, and is stopped after 5 minutes by addition of 100 mM Hepes, pH 7.0 buffer containing 0.4 M of potassium fluoride, 133 mM EDTA, 0.1% BSA, the XL665-labelled antibody anti-GST and the anti-phosphotyrosine antibody conjugated to europium cryptate Eu—K (Cis-Bio Int.). The characteristics of the two fluorophores, XL-665 and Eu—K, are available in G. Mathis et al., Anticancer Research, 1997, 17, pages 3011-3014. The energy transfer between the excited europium cryptate to the acceptor XL665 is proportional to the degree of autophosphorylation of IGF-1R. The specific long-lasting signal of XL-665 is measured in a GENios Pro TECAN plate counter. The inhibition of autophosphorylation of IGF-1R at time 30 minutes and 90 minutes with the test compounds of the invention is calculated relative to a 1% in DMSO control, whose activity is measured in the absence of compound. The curve representing the percentage of inhibition as a function of the log of the concentration is established to determine the concentration corresponding to 50% inhibition (IC50).

The target of test [2] is MEF-IGF1R cells (stable clone transfected with hIGF-1R) (Homo sapiens, UniProt P08069). Nature of the test: Proliferation/viability of MEF-IGF1R (Test C), [14C]thymidine incorporation. In kind it is cell-based. To be noted: rhIGF1 100 ng/mL, 72 hours, read-out: Test C IC50. How it is done: C) Measurement of the Proliferation/Viability of MEF-IGF1R
Sequence of MEF-IGF1R cells (stable clone transfected with hIGF-1R) (P08069 whole entry, change not shown): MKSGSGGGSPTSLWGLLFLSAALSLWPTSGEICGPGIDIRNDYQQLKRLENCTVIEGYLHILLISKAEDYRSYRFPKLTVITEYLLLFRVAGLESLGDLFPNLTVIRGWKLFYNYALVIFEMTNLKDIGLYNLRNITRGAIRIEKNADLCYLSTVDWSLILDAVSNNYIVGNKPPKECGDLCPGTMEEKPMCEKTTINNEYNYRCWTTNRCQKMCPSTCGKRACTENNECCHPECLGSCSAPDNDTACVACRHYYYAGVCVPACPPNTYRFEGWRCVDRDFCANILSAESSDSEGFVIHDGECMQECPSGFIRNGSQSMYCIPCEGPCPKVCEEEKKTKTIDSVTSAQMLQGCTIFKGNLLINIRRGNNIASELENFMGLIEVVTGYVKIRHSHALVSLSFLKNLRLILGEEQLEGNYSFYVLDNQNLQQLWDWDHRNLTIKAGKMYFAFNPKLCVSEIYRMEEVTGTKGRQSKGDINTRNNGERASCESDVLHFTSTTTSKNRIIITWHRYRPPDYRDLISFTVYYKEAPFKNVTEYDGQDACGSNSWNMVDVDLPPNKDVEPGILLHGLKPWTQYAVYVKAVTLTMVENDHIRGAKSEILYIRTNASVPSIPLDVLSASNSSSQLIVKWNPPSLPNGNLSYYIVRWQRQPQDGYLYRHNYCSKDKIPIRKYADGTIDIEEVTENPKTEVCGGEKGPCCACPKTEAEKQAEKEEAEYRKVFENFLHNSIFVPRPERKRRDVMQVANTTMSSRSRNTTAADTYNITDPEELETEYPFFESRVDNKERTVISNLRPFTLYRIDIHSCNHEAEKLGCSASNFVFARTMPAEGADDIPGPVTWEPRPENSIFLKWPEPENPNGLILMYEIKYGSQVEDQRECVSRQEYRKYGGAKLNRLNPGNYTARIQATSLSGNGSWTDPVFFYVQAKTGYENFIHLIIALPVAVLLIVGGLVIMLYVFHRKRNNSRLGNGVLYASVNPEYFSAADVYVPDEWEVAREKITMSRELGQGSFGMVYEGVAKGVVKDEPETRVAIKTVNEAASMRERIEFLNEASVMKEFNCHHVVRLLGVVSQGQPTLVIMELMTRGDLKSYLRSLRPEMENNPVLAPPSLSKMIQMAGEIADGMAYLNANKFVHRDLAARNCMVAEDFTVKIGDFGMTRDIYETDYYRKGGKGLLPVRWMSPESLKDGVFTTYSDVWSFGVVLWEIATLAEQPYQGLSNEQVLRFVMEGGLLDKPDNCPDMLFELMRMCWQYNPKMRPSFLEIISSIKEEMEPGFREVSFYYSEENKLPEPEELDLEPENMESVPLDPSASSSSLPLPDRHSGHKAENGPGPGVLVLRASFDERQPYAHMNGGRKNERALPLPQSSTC
Cell culture: the MEF-IGF1R cells (stable clone of cells transfected with the receptor hIGF-1R) are cultured at 37° C. under 5% CO2 in EMEM medium containing 10% FCS.
Test procedure: the cells are seeded at 5000 cells per well in 96-well Cytostar plates (Amersham) with 0.2 mL of EMEM culture medium at 37° C. for 18 hours. The cells are then washed twice with EMEM medium and left to culture without serum for 24 hours. The compounds are then added at various concentrations in the presence of rhIGF1 (100 ng/mL) and 0.1 μCi of Thymidine [^14C] (specific activity ˜50 mCi/mmol) to give 0.2 mL of volume per well. After incubation for 72 hours in the presence of the compound, at 37° C. under 5% CO2, the incorporation of Thymidine [^14C] is measured by counting the radioactivity on a Microbeta trilux counter (Perkin-Elmer). The IC50 is determined from 10 increasing concentrations of the compound.
as §1, §2, §3, §4, §5

The mark [3] stands for this setting: preincubation with enzyme 30 minutes, read-out: Test A 30′ IC50.
Where [4] appears, read: preincubation with enzyme 90 minutes, read-out: Test A 90′ IC50.

Read-outs that look alike come from different tables or passages of the source.

T2 sequence (P08069 960-1367 limits assumed): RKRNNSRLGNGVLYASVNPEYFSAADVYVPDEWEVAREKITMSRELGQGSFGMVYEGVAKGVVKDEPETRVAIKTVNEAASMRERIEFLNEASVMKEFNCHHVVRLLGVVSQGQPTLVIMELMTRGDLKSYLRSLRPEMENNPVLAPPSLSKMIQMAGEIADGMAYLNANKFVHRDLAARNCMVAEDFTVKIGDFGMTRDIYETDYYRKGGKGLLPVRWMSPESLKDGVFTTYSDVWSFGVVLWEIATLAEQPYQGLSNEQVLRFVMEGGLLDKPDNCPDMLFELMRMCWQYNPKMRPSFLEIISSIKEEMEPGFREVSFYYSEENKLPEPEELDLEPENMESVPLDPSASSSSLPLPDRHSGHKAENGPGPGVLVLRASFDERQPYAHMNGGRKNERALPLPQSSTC
T1 sequence (P08069 31-1367): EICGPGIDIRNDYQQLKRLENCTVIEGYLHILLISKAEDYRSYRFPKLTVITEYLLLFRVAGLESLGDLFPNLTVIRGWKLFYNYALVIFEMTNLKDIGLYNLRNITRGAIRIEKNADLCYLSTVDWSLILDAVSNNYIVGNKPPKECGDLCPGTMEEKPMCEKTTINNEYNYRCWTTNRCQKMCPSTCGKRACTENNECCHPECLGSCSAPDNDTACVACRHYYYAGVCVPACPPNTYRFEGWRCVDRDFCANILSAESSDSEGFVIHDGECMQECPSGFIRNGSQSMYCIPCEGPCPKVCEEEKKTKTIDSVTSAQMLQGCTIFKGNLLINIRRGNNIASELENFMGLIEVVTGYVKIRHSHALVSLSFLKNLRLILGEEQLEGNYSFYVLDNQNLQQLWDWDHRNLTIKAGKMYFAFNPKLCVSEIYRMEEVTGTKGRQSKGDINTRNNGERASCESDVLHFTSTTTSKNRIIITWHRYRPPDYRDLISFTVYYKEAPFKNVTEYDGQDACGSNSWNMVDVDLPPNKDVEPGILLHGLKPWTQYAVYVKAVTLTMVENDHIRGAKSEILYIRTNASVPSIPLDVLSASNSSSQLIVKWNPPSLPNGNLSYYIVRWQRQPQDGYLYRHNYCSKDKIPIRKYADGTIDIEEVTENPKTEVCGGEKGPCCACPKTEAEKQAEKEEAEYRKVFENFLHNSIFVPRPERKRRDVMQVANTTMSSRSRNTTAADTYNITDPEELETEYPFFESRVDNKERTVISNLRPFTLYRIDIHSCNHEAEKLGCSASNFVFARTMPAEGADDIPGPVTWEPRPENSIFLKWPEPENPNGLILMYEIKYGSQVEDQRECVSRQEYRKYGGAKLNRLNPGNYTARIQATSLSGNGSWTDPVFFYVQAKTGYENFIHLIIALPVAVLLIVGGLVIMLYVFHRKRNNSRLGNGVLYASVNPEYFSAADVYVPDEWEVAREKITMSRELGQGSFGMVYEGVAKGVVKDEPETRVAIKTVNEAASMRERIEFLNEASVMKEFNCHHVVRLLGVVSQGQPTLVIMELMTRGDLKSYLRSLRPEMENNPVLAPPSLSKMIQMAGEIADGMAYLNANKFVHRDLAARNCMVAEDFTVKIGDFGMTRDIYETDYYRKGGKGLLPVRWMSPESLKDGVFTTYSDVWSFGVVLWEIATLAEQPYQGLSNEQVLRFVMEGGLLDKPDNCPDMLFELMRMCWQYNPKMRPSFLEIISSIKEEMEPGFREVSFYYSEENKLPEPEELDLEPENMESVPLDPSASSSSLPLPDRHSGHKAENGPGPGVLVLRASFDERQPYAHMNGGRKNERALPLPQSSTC

`CC(C)(C)c1ccc(N2C(=O)N(Cc3ccnc(Nc4cccc(F)c4)c3)C(C)(C)C2=O)cc1` [Example 31I, 3-(4-tert-butylphenyl)-1-({2-[(3-fluorophenyl)-amino]pyridin-4-yl}methyl)-5,5-dimethylimidazolidine-2,4-dione]: the IC50 at IGF1R in MCF-7 cells is 0.01 to 0.1 µM; in test [1] (setting [3]) it was greater than 0.1 µM; in test [1] (setting [4]), 0.01 to 0.1 µM. The GI50 in test [2] was less than 0.01 µM.

In the case of `CC(C)(C)c1ccc(N2C(=O)N(Cc3ccnc(NC4CC4)c3)C(C)(C)C2=O)cc1` [Example 31J, 3-(4-tert-butylphenyl)-1-{[2-(cyclopropylamino)pyridin-4-yl]methyl}-5,5-dimethylimidazolidine-2,4-dione], the half-maximal inhibitory concentration (IC50) is 0.01 to 0.1 µM against IGF1R in MCF-7 cells, 0.01 to 0.1 µM in test [1] (setting [3]) and less than 0.01 µM in test [1] (setting [4]). In addition, the GI50 in test [2] was 0.01 to 0.1 µM.

Regarding `CC(C)(C)c1ccc(N2C(=O)N(Cc3ccnc(Nc4cccnc4Cl)c3)C(C)(C)C2=O)cc1` [Example 31K, 3-(4-tert-butylphenyl)-1-({2-[(2-chloropyridin-3-yl)amino]pyridin-4-yl}methyl)-5,5-dimethylimidazolidine-2,4-dione], the IC50 is less than 0.01 µM on IGF1R in MCF-7 cells, 0.01 to 0.1 µM in test [1] (setting [3]) and 0.01 to 0.1 µM in test [1] (setting [4]). Besides, the GI50 in test [2] was 0.01 to 0.1 µM.

With `CC(C)(C)c1ccc(N2C(=O)N(Cc3ccnc(Nc4ccc(Cl)nc4)c3)C(C)(C)C2=O)cc1` [Example 31L, 3-(4-tert-butylphenyl)-1-({2-[(6-chloropyridin-3-yl)amino]pyridin-4-yl}methyl)-5,5-dimethylimidazolidine-2,4-dione], the figures for the 50% inhibitory concentration (IC50) (on IGF1R in MCF-7 cells; in test [1] (setting [3]); in test [1] (setting [4])) were 0.01 to 0.1 µM, greater than 0.1 µM and 0.01 to 0.1 µM, respectively. In addition, the GI50 in test [2] is 0.01 to 0.1 µM.

Take `CC(C)(C)c1ccc(N2C(=O)N(Cc3ccnc(Nc4ccc(O)nc4)c3)C(C)(C)C2=O)cc1` [Example 31M, 3-(4-tert-butylphenyl)-1-({2-[(6-hydroxypyridin-3-yl)amino]pyridin-4-yl}methyl)-5,5-dimethylimidazolidine-2,4-dione]: the concentration for half-maximal inhibition (IC50) (at IGF1R in MCF-7 cells; in test [1] (setting [3]); in test [1] (setting [4])) was 0.01 to 0.1 µM throughout. The GI50 in test [2] was in the range of 0.01 to 0.1 µM.

Turning to `CC(C)(CO)c1ccc(N2C(=O)N(Cc3ccnc(Nc4cccnc4)c3)C(C)(C)C2=O)cc1` [Example 31N, 3-[4-(2-hydroxy-1,1-dimethylethyl)phenyl]-5,5-dimethyl-1-{[2-(pyridin-3-ylamino)pyridin-4-yl]methyl}-imidazolidine-2,4-dione], the IC50 was 0.01 to 0.1 µM against IGF1R in MCF-7 cells, greater than 0.1 µM in test [1] (setting [3]) and 0.01 to 0.1 µM in test [1] (setting [4]). In test [2], the GI50 is greater than 0.1 µM.

`CC(C)(C)c1ccc(N2C(=O)N(Cc3ccnc(NC(=O)Nc4cccnc4)c3)C(C)(C)C2=O)cc1` [Example 31O, 1-(4-{[3-(4-tert-butylphenyl)-5,5-dimethyl-2,4-dioxoimidazolidin-1-yl]methyl}pyridin-2-yl)-3-pyridin-3-ylurea]: the 50% inhibitory concentration (IC50) against IGF1R in MCF-7 cells is 0.01 to 0.1 µM; in test [1] (setting [3]) it was greater than 0.1 µM; in test [1] (setting [4]) it was greater than 0.1 µM. The GI50 in test [2] is 0.01 to 0.1 µM.

With `CC(C)(C)c1ccc(N2C(=O)N(Cc3ccnc(NC(N)=O)c3)C(C)(C)C2=O)cc1` [Example 31P, 1-(4-{[3-(4-tert-butylphenyl)-5,5-dimethyl-2,4-dioxoimidazolidin-1-yl]methyl}pyridin-2-yl)urea], the IC50 is 0.01 to 0.1 µM at IGF1R in MCF-7 cells, 0.01 to 0.1 µM in test [1] (setting [3]) and less than 0.01 µM in test [1] (setting [4]). For the same compound, in test [2], the GI50 is less than 0.01 µM.

In the case of `COC(=O)Nc1cc(CN2C(=O)N(c3ccc(C(C)(C)C)cc3)C(=O)C2(C)C)ccn1` [Example 31Q, methyl (4-{[3-(4-tert-butylphenyl)-5,5-dimethyl-2,4-dioxoimidazolidin-1-yl]methyl}pyridin-2-yl)carbamate], the IC50 against IGF1R in MCF-7 cells was less than 0.01 µM; in test [1] (setting [3]), 0.01 to 0.1 µM; in test [1] (setting [4]), less than 0.01 µM. For the same compound, in test [2], the GI50 is 0.01 to 0.1 µM.

Turning to `CC(C)(C)c1ccc(N2C(=O)N(Cc3ccnc(Nc4ccc(CCN5CCCC5)cc4)c3)C(C)(C)C2=O)cc1` [Example 31U, 3-(4-tert-butylphenyl)-5,5-dimethyl-1-[(2-{[4-(2-pyrrolidin-1-ylethyl)phenyl]amino}pyridin-4-yl)methyl]imidazolidine-2,4-dione], the figures for the concentration for half-maximal inhibition (IC50) (at IGF1R in MCF-7 cells; in test [1] (setting [3]); in test [1] (setting [4])) were less than 0.01 µM, 0.01 to 0.1 µM and less than 0.01 µM, respectively. Moreover, in test [2], the GI50 was less than 0.01 µM.
